Patent US20100210692A1, “METHODS OF TREATMENT USING SIRT MODULATORS AND COMPOSITIONS CONTAINING SIRT1 MODULATORS” (priority 2007, published 2010)
“Also recorded” adds a separate entry of the source.

Assays:
Swiss EF-PPARγ cells = assay: RT-PCR of Group 1 and Group 2 genes in Swiss EF-PPARγ / F-PPARγ cells
Experimental: In (A), (B) and (C), total RNA of cells was isolated at day 5 using Trizol Reagent (Invitrogen) and subjected to RT-PCR analysis of the indicated Group 1 and Group 2 genes as described in materials and methods.
Cell Culture: The Swiss fibroblast cell lines expressing wild type (WT.) and mutant forms of PPARγ (E, EF, F, DD) generated as previously described (22) and murine 3T3-L1 preadipocytes were grown in Dulbecco's modified Eagle's medium (DMEM) containing 10% FBS (fibroblasts) or 10% calf serum (preadipocytes) until confluent and were then maintained in the same medium for an additional 2 days. […] Cells were refed every 2 days.
Analysis of RNA: Total cellular RNA was prepared using TRIzol reagent (InVitrogen) according to the manufacturer's instructions. As were made from equivalent amounts of total RNA by using Reverse Transcription System (Promega) as described previously (33).

[1] = test system: mouse FGF21 promotor constructs; assay: FGF21 promoter luciferase reporter gene assay in Swiss fibroblasts; format: cell-based; details: 1 μM GW1929, 48 hours
Experimental: (§1) Cells were then harvested for extraction of RNA followed by RT-PCR analysis of FGF21 and FABP4/aP2 mRNAs as described in materials and methods. (B). […] (C). Reporter assays were also performed in Swiss fibroblasts stably expressing a WT-PPARγ or a pBabe-puro empty vector (control cells) following transfection of the FGF21 promoter reporter plasmids along with the renilla control vector in the presence or absence of GW1929. In both assays (B) and (C), a set of cells were also transfected with a reporter plasmid consisting of the PPRE from the aP2 gene upstream of luciferase within pGL3 (DR-1). Transcriptional activity of each of the fragments of the FGF21 gene promoter is shown as the ratio of luciferase to renilla activity (Luc/Ren) as described in materials and methods.

SIRT1 [2] = target: T1, SIRT1 (Homo sapiens, UniProt Q96EB6); assay: SIRT1 p53-382 IC50 assay (Table 1); format: biochemical
T1 sequence (Q96EB6 1-747): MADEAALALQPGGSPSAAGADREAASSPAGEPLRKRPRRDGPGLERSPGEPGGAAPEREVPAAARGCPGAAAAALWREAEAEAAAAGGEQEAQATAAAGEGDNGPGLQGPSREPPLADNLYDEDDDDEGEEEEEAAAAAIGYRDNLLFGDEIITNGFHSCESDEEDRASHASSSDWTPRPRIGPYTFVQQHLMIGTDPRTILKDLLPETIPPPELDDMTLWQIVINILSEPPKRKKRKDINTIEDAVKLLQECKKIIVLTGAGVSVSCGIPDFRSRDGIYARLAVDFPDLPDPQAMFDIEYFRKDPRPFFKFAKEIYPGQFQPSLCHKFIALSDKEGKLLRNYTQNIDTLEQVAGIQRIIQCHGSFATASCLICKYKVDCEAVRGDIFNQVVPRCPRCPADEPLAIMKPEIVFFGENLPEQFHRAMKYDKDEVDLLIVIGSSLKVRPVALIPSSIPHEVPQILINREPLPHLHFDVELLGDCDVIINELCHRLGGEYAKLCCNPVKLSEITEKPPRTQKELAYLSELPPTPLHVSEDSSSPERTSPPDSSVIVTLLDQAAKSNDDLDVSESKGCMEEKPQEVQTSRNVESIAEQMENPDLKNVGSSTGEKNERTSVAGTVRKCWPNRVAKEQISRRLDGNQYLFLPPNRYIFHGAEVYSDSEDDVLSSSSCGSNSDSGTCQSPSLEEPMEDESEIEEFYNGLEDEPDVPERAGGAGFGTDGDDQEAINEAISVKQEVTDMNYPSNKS

3T3-L1 adipocytes [3] = assay: RT-PCR of Group 1 and Group 2 genes in differentiating 3T3-L1 cells (FIG. 17); format: cell-based, murine; details: SIRT1 knockdown 3T3-L1 cells, day 4, 2 days exposure
From the text: Untreated and treated cells were harvested for analysis of select mRNAs using RT-PCR as described in materials and methods. […] (C). Model proposing interplay between PPARγ and SIRT1 in controlling adipocyte function, PPARγ functions to regulate adipocyte formation and function. Endogenous ligands activate PPARγ requiring participation of both helix 7 and 12 to orchestrate adipogenesis. In mature adipocytes, SIRT1 mediates hormonal and nutrient control of select PPARγ target genes that are involved in controlling metabolism by suppressing the action of endogenous ligands. The thiazolidinedione (TZD) family of synthetic PPARγ ligands can overcome the suppressive effects of SIRT1 acting through helix 7 as well as helix 12 to induce the metabolic genes.
(§2) Cells were refed every 2 days.

Ero1-Lα = assay: Transient knockdown of Ero1-Lα in 3T3-L1 adipocytes; format: cell-based, Murine; details: 100 nM RNAi duplex, transfected day 4 and 5, harvested day 6
Experimental: 3T3-L1 preadipocytes were cultured in 60 mm dishes and induced to differentiate as described above. On day 4, the differentiation-inducing medium was replaced with 2.5 mL, fresh DMEM containing 10% FBS. 15 μL TransIT-TKO Transfection Reagent (Mirus Bio Cooperadon. Madison, Wis.) was diluted into 250 μL serum free DMEM and incubated at room temperature for 20 minutes, at which time 100 nM Ero1-Lα RNAi duplex or control duplex […]) was added and mixed thoroughly. After incubation at room temperature for another 20 minutes, the resulting TranIT-TKO/RNAi mixture was gently mixed into the adipocyte cultures. The next day, the medium was changed to 2.5 mL flesh DMEM containing 10% FBS and the transfection was repeated as on day 4. On day 6, the total cellular proteins were harvested and subjected to Western blot analysis. The modified synthetic Ero1-Lα RNAi duplexes (Stealth™ siRNA) were from Invitrogen Life Technologies. The sequences are as follows:
Western Blot Analysis of Proteins: Isolation and western blot analysis of total cell proteins was performed as outlined previously (21). […]

[4] = test system: Fibroblasts that ectopically express PPARγ; assay: qPCR of FGF21 mRNA in fibroblasts that ectopically express PPARγ (Example 4); format: cell-based; details: 5 μM compound with 5 μM troglitazone, day 4 to 6
Experimental: Cells were harvested on day 6 for qPCR measurement of FGF21 mRNA. Three separate dishes of cells were analyzed for each condition.

SIRT1 [5] = target: T1, SIRT1; assay: Activity of enantiomers against the SIRT1 enzyme; format: biochemical; details: comparison of enantiomers
Swiss WT-PPARγ cells = assay: RT-PCR of Group 1 and Group 2 genes in Swiss WT-PPARγ cells; format: cell-based, mouse; details: for expression of C/EBPα and adiponectin in response to endogenous ligands (FIG. 14B) / expression of the Group 2 genes in response to endogenous ligands (FIG. 14B): antagonist 10 μM, day 5
Experimental: as §1, §2

3T3-L1 adipocytes [6] = assay: Western blot of adiponectin secretion and intracellular proteins in 3T3-L1 adipocytes; format: cell-based, Murine; details: for secretion of the HMW adiponectin complexes: non-reducing SDS-PAGE
Experimental: Cell Culture: Murine 3T3-L1 preadipocytes were cultured and maintained in DMEM supplemented with […]. Differentiation was induced by exposure of postconfluent cells to DMEM containing 10% […], 1 μM dexamethasone (DEX), 0.5 mM 3-isobutyl-1-methylxanthine (MIX) and […] insulin. After 48 hours, the medium was changed to DMEM containing 10% FBS every two days. Human embryonic kidney (HEK)-293T cells were cultured in DMEM with 10% FBS; The Swiss F-PPARγ cells were differentiated as recently described (Wang et al, 2006; accompanying paper).
Western Blot Analysis of Proteins: Isolation and western blot analysis of total cell proteins was performed as outlined previously (21). The antibodies employed in the analysis were as follows: Mouse polyclonal anti-adiponectin antibody (Affinity BioREagents, Golden, Colo.), polyclonal anti-SIRT1 antibody (Upstate), anti-PPARγ and anti-C/EBPα (Santa Cruz Biotechnology), anti-Ero1 polyclonal antibody (Abnova Co., Taiwan, China) and polyclonal anti-aP2 serum (Dr. David Benlohr at University of Minnesota). For analysis of secreted proteins, aliquots of the culture medium were centrifuged at low speed to remove debris and then subjected to standard SDS-PAGE as above or non-reducing SDS-PAGE as outlined by Kadowaki and collaborators (37). Prior to electrophoresis, the samples were mixed with 4× non-reducing protein sample buffer (200 mM, […], 8% SDS, 0.4% bromophenot blue, 40% glycerol) and incubated at room temperature for one hour. Care was taken to ensure that all components of the SDs PAGE system were completely free of reducing agents.

[7] = test system: Swiss 3T3 fibroblasts expressing wild type PPARγ; assay: RT-PCR of mRNAs in Swiss 3T3 fibroblasts expressing wild type PPARγ (FIG. 5); format: cell-based, mouse; details: troglitazone 5 μM or T0070907 10 μM with differentiation cocktail, day 6
Experimental: Swiss 3T3 fibroblasts expressing wild type PPARγ or a control vector were induced to differentiate by exposure to a differentiation cocktail of dexamethasone, isobutylmethylxanthine and insulin in 10% FBS as outlined in Materials and Methods (Con). […] At day 6, cells were harvested for analysis of individual mRNAs as indicated using RT-PCR.
Cell Culture: Murine 3T3-L1 preadipocytes were cultured and maintained in DMEM supplemented with 0% calf serum. Differentiation was induced by exposure of postconfluent cells to DMEM containing 10% MS, 1 μM dexamethasone (DEX), 0.5 mM 3-isobutyl-1-methylxanthine (MIX) and 1,61 μM insulin. After 48 hours, the medium was changed to DMEM containing 10% FBS every two days.
A Analysis: Total RNA was isolated using TRIzol following the manufacturer's instructions and was subjected to RT-PCR analysis as outlined in the Promega product manual as previously described (31). […] In the case of analyzing Ero1-Lα mRNA, primers were the same as those listed above for generating the Ero1-Lα pRevTRE expression vector.

[8] = test system: Swiss F372A PPARγ cells (F-Ero1); assay: Adiponectin secretion in Swiss F372A PPARγ cells with ectopic Ero1-Lα (FIG. 9); format: cell-based, mouse; details: F-Ero1 cells + tetracycline, 50 μM resveratrol for 2 days from day 4
[9] = control and SIRT1 knock down 3T3-L1 cells, T0070907 10 μM (FIG. 6D)
[10] = troglitazone 5 μM or T0070907 10 μM, 3 days
[11] = resveratrol 50 μM or nicotinamide 5 mM, 2 days
[12] = resveratrol 50 μM or nicotinamide 5 mM, 2 days, reducing SDS-PAGE

In the case of `CN(CCOc1ccc(C[C@H](Nc2ccccc2C(=O)c2ccccc2)C(=O)O)cc1)c1ccccn1` [GW1929], the “expression of select Group 1 genes (FIG. 14A)” value (Swiss EF-PPARγ cells) is reported as “capable of inducing expression of the Group 2 genes as well as Group 1 genes”, the “transcriptional activity of the 500 bp fragment of the FGF21 gene” value ([1]; Swiss cells stably expressing WT-PPARγ) is reported as “enhanced many fold” and the “luciferase activity of FGF21 gene fragments (FIG. 15B)” value ([1]; Swiss fibroblasts co-transfected with PPARγ expression plasmid) is reported as “enhanced even further”. The “luciferase activity of FGF21 gene fragments (FIG. 15B)” value ([1]; control Swiss fibroblasts without PPARγ plasmid) was “has no affect on this activity”.
For `Cc1ccc2[nH]c3c(c2c1)CCCC3C(N)=O` (stereo not drawn) [Compound 4, 6-Methyl-2,3,4,9-tetrahydro-1H-carbazole-1-carboxylic acid amide], the IC50 (SIRT1 [2]) was less than 1 µM.
For `Cc1c(C)c2c(c(C)c1O)CCC(C)(COc1ccc(CC3SC(=O)NC3=O)cc1)O2` (stereo not drawn) [troglitazone], the “dose of troglitazone inducing FGF21 and Egln1 (FIG. 17B)” value (3T3-L1 adipocytes [3]) was 250 nM and the “doses of troglitazone inducing C/EBPα, adiponectin and FABP4/aP2 (FIG. 14C)” value (Swiss EF-PPARγ cells; EF-PPARγ cells, 5 days) was 250 to 500 nM.
With GGGCUCUCUCCAAAGUGCUUCCAUU [siRNA #3] the “attenuation of Ero1-Lα expression” value (Ero1-Lα) was “the most effective”.
For `NC(=O)C1CCCCc2c1[nH]c1ccc(Cl)cc21` (racemic) [Compound E2], the “FGF21 expression induced by troglitazone (FIG. 20)” value [4] was “potentiate the activity of troglitazone in inducing FGF21 expression”.
For `NC(=O)C1CCCc2c1[nH]c1ccc(Cl)cc21` (stereo not drawn) [Compound E1], the “activity against the SIRT1 enzyme” value (SIRT1 [5]) was “inactive isomer”.
For `O=C(Nc1ccccc1)c1cc([N+](=O)[O-])ccc1Cl` [GW9662], the “expression of C/EBPα and adiponectin in response to endogenous ligands (FIG. 14B)” value (Swiss WT-PPARγ cells) was “moderately attenuate” and the “expression of the Group 2 genes in response to endogenous ligands (FIG. 14B)” value (Swiss WT-PPARγ cells) was “almost completely block expression of the Group 2 genes”.
With `O=C(Nc1ccncc1)c1cc([N+](=O)[O-])ccc1Cl` [Compound T0070907] the Ero1-Lα expression (3T3-L1 adipocytes [6]; [9]) was “inhibits Ero1-Lα expression”, the adiponectin secretion (3T3-L1 adipocytes [6]; [9]) was “suppresses adiponectin secretion” and the “amount of secreted HMW adiponectin” value (3T3-L1 adipocytes [6]; [10]) was “has the opposite effect”. The secretion of adipsin (3T3-L1 adipocytes [6]; [10]) was “has the opposite effect”, the “Ero1-Lα mRNA expression” value [7] was “attenuates Ero1-Lα expression” and the “expression of C/EBPα and adiponectin in response to endogenous ligands (FIG. 14B)” value (Swiss WT-PPARγ cells) was “moderately attenuate”. The “expression of the Group 2 genes in response to endogenous ligands (FIG. 14B)” value (Swiss WT-PPARγ cells) was “almost completely block expression of the Group 2 genes; also recorded: the most potent”.
With `O=C[C@H](O)[C@@H](O)[C@H](O)[C@H](O)CO` [glucose] the “secretion of HMW forms of adiponectin” value (3T3-L1 adipocytes [6]; glucose or 20 mM lactate, non-reducing SDS-PAGE without heat) was “significant increase in the appearance of the HMW species in the media”, the SIRT1 expression (3T3-L1 adipocytes [6]; increase in glucose concentration, 72 hrs) was “significant decrease of SIRT1 expression” and the “amount of adiponectin secreted into the medium (Ext)” value (3T3-L1 adipocytes [6]; increasing concentrations of glucose, 72 hrs, reducing SDS-PAGE) was “dramatically increases the amount of adiponectin secreted into the medium”.
`NC(=O)c1cccnc1` [nicotinamide] was tested, and the secretion of adipsin (3T3-L1 adipocytes [6]; [11]) was “has no effect on adipsin”, the “secretion of the HMW adiponectin complexes” value (3T3-L1 adipocytes [6]; [11]) was “enhances” and the “secretion of adiponectin (Ext)” value (3T3-L1 adipocytes [6]; [12]) was “enhancing secretion of adiponectin”.
For `Oc1ccc(C=Cc2cc(O)cc(O)c2)cc1` [resveratrol], the secretion of adipsin (3T3-L1 adipocytes [6]; [11]) was “without affecting secretion of adipsin”, the “secretion of the HMW adiponectin complexes” value (3T3-L1 adipocytes [6]; [11]) was “decreases” and the “secretion of adiponectin (Ext)” value (3T3-L1 adipocytes [6]; [12]) was “reduces the secretion of adiponectin”. The secretion of adiponectin [8] was “inhibits secretion of adiponectin”.
In the case of `OCCS` [β-mercaptoethanol], the secretion of adiponectin (3T3-L1 adipocytes [6]; β-mercaptoethanol treatment, preliminary data, not shown) is reported as “significantly enhances the secretion of adiponectin”.
In the case of `NC(=O)C1CCCc2c1[nH]c1ccc(Cl)cc21` (stereo not drawn) [Compound E3], the “activity against the SIRT1 enzyme” value (SIRT1 [5]) is reported as “active isomer” and the “FGF21 expression induced by troglitazone (FIG. 20)” value [4] is reported as “potentiate the activity of troglitazone in inducing FGF21 expression”.
For `C[C@@H]1C[C@@H]([C@H](O)CC2CC(=O)NC(=O)C2)C(=O)[C@@H](C)C1` [cycloheximide], the “FGF21 mRNA expression (FIG. 15A)” value (Swiss WT-PPARγ cells; day 5 cells, troglitazone 5 μM or cycloheximide 5 μg/ml for 4, 6 or 8 hrs) was “induced simply due to exposure to cycloheximide”.
